Assay results taken from article PMC6199744, “Development of Chemical Proteomics for the Folateome and Analysis of the Kinetoplastid Folateome” (ACS Infectious Diseases, 2018).
Values joined by “and” are separate entries in the source; they are usually repeats but may differ in a detail not shown here. Equal values may be shown once. Read-outs that look alike come from different tables or passages of the source.

System: L. major lysate proteins
Assay: Multitargeted bead mixture chemoproteomics, single concentration competition, proteome-wide
Type: binding
Details: for fold change / fold change relative to vehicle control: vehicle control = 1; for fold change relative to vehicle control: competition with free ligand

CCCCCCOc1cccc(Cc2cnc(N)nc2N)c1 [compound 2]
fold change vs vehicle control: 1.17 and 1.18 and 1.07 and 1.04
fold change (LINJ.05.0500 ATPASE ALPHA SUBUNIT): 1.11
fold change (LINJ.36.4570 PROTEASOME REGULATORY ATPASE SUBUNIT): 0.65
fold change (LMJF.10.0510 GLYCEROL-3-PHOSPHATE DEH[…] ], GLYCOSOMAL): 1.02
fold change (LMJF.16.1610 PROHIBITIN): 1.14
fold change (LMJF.18.1370 HEAT SHOCK PROTEIN, PUTATIVE): 1.03
fold change (LMJF.19.0300 RNA BINDING PROTEIN, PUTATIVE): 0.93
fold change (LMJF.21.0760 […]-ATP-ASE SUBUNIT 5, PUTATIVE): 0.91
fold change (LMJF.22.0410 HY[…], CONSERVED): 0.85
fold change (LMJF.25.1770 ENOYL-COA REDUCTASE, PUTATIVE): 1.1
fold change (LMJF.26.0300 AMINOPEPTIDASE-LIKE PROTEIN): 0.85
fold change (LMJF.26.2560 HY[…], CONSERVED): 1.08
fold change (LMJF.27.1810 GLYCOSOMAL PHOSPHOENOLPYRUVATE CARBOXYKINASE, PUTATIVE): 1.17
fold change (LMJF.28.0490 PROPIONYL-COA CARBOXYLASE BETA CHAIN, PUTATIVE): 0.63
fold change (LMJF.29.0940 HY[…], CONSERVED): 1.21
fold change (LMJF.29.1310 CARNITINE/CHOLINE ACETYLTRANSFERASE, PUTATIVE): 1.04
fold change (LMJF.29.1470 HY[…], CONSERVED): 1.11
fold change (LMJF.29.2440 HYPOTHETICAL PROTEIN, CONSERVED): 1
fold change (LMJF.30.2350 SPHINGOSINE 1-PHOSPHATE LYASE): 1.12
fold change (LMJF.30.2970 GLYCERALDEHYDE 3-PHOSPHATE DEHYDROGENASE, GLYCOSOMAL): 1.11
fold change (LMJF.30.3390 CAS/CSE/IMPORTIN DOMAIN PROTEIN, PUTATIVE): 0.9
fold change (LMJF.31.2650 ACETOIN DEHYDROGENASE E3 COMPONENT-LIKE PROTEIN): 1.02
fold change (LMJF.31.2970 ACETYL-COA CARBOXYLASE, PUTATIVE): 0.91
fold change (LMJF.33.1030 HYPOTHETICAL PROTEIN, CONSERVED): 0.95
fold change (LMJF.35.5040 polyadenylate-binding protein 1): 1.22
fold change (LMJF.35.5250 ALPHA-1,2-MANNOSYLTRANSFERASE, PUTATIVE): 0.99
fold change (LMJF.36.5100 HY[…], CONSERVED): 1.03
fold change (LMJF.[…] RIBOSOMAL PROTEIN S7, PUTATIVE): 1.35
fold change vs vehicle control (protein LINJ.03.0940 HY[…], CONSERVED): 1.19
fold change vs vehicle control (protein LINJ.09.0030 HYPOTHETICAL PROTEIN, CONSERVED): 0.91
fold change relative to vehicle control (protein LINJ.11.0780 40S RIBOSOMAL PROTEIN S21, PUTATIVE): 1.25
fold change (protein LINJ.13.0990 […] SUBUNIT 2, PUTATIVE): 1.04
fold change vs vehicle control (protein LINJ.13.1460 ALPHA TUBULIN): 1.06
fold change (protein LINJ.15.0090 HEAT SHOCK PROTEIN HSLVU, ATPASE SUBUNIT HSLU, PUTATIVE): 1.01
fold change relative to vehicle control (protein LINJ.16.1380 CYTOCHROME C, PUTATIVE): 1.41
fold change vs vehicle control (protein LINJ.19.0300 RNA BINDING PROTEIN): 1.2
fold change (protein LINJ.20.0630 CYTIDINE TR[…], PUTATIVE): 1.24
fold change relative to vehicle control (protein LINJ.20.1390 COATOMER BETA SUBUNIT, PUTATIVE): 1.31
fold change vs vehicle control (protein LINJ.21.1310 40S RIBOSOMAL PROTEIN S23, PUTATIVE): 1.12
fold change vs vehicle control (protein LINJ.23.1680 HY[…], CONSERVED): 1.11
fold change vs vehicle control (protein LINJ.25.1170 […] OXIDASE VII, PUTATIVE): 1.03
fold change relative to vehicle control (protein LINJ.25.1220 RIBOSOMAL PROTEIN S25): 1.24
fold change vs vehicle control (protein LINJ.26.1080 HY[…], CONSERVED): 1.11
fold change vs vehicle control (protein LINJ.27.1140 HY[…], CONSERVED): 1.05
fold change vs vehicle control (protein LINJ.28.1100 RIBOSOMAL PROTEIN S20, PUTATIVE): 1.04
fold change relative to vehicle control (protein LINJ.28.1940 REPLICATION FACTOR A, 51KDA SUBUNIT, PUTATIVE): 1.28
fold change (protein LINJ.31.2350 ADP-RI[…], PUTATIVE): 1.11
fold change vs vehicle control (protein LINJ.34.0670 […]-ATP-ASE SUBUNIT 11, PUTATIVE): 1.17
fold change (protein LINJ.35.0410 40S RIBOSOMAL PROTEIN S3A, PUTATIVE): 1.2
fold change relative to vehicle control (protein LINJ.35.0780 CBS DOMAIN PROTEIN, CONSERVED): 0.96
fold change vs vehicle control (protein LINJ.36.0510 HY[…], CONSERVED): 1.08
fold change vs vehicle control (protein LINJ.36.3940 40S RIBOSOMAL PROTEIN S27-1, PUTATIVE): 0.95
fold change (protein LINJ.36.4180 HS1VU COMPLEX PROTEOLYTIC SUBUNIT-LIKE): 0.97
fold change (protein LINJ.36.7350 […] OXIDASE SUBUNIT I): 1.03
fold change (protein LMJF.01.0520 LONG-CHAIN-FATTY-ACID-COA LIGASE, PUTATIVE): 0.98
fold change vs vehicle control (protein LMJF.02.0460 HY[…], CONSERVED): 1.06
fold change vs vehicle control (protein LMJF.03.0230 LONG CHAIN FATTY ACYL COA SYNTHETASE, PUTATIVE): 1.18
fold change vs vehicle control (protein LMJF.03.0630 HYPOTHETICAL PROTEIN, CONSERVED): 1
fold change (protein LMJF.05.0780 HY[…], CONSERVED): 1.13
fold change (protein LMJF.06.0010 HISTONE H4): 1.16
fold change (protein LMJF.06.0140 PROTEASOME BETA 6 SUBUNIT, PUTATIVE): 0.93
fold change (protein LMJF.06.0650 […], PUTATIVE): 1.08
fold change vs vehicle control (protein LMJF.08.0510 RIBOSE-PHOSPHATE PYROPHOSPHOKINASE, PUTATIVE): 1.01
fold change vs vehicle control (protein LMJF.08.0550 TRANSLATION INITIATION FACTOR-LIKE PROTEIN): 1.1
fold change vs vehicle control (protein LMJF.08.1100 HY[…], CONSERVED): 1.08
fold change relative to vehicle control (protein LMJF.09.1120 MITOCHONDRIAL RNA BINDING PROTEIN 2,MRP2, GBP25): 1
fold change vs vehicle control (protein LMJF.09.1260 HY[…], CONSERVED): 1.11
fold change (protein LMJF.10.1010 NUCLEOSIDE PHOSPHORYLASE-LIKE PROTEIN): 0.94
fold change (protein LMJF.10.1240 HYPOTHETICAL PROTEIN, CONSERVED): 0.79
fold change vs vehicle control (protein LMJF.11.0130 NGG1 I[…] 3-LIKE PROTEIN): 1.06
fold change vs vehicle control (protein LMJF.11.0240 […] 7 SUBUNIT, PUTATIVE): 1.02
fold change (protein LMJF.11.1050 PRETRA[…], ALPHA SUBUNIT, PUTATIVE): 1.27
fold change vs vehicle control (protein LMJF.11.1110 60S RIBOSOMAL PROTEIN L28, PUTATIVE): 1.71
fold change vs vehicle control (protein LMJF.12.0210 […] […]1L8 3, PUTATIVE): 0.96
fold change vs vehicle control (protein LMJF.12.0280 ORNITHINE DECARBOXYLASE, PUTATIVE): 0.92
fold change vs vehicle control (protein LMJF.13.0450 HYPOTHETICAL PROTEIN, CONSERVED): 0.94
fold change vs vehicle control (protein LMJF.13.0870 MIT[…] ALPHA SUBUNIT, PUTATIVE): 1.12
fold change vs vehicle control (protein LMJF.14.0130 INOSINE-GUANINE NUCLEOSIDE HYDROLASE, PUTATIVE): 1
fold change (protein LMJF.14.0310 PROTEASOME ALPHA 3 SUBUNIT, PUTATIVE): 0.96
fold change (protein LMJF.14.0650 FATTY ACID ELONGASE, PUTATIVE): 1.09
fold change (protein LMJF.14.0660 FATTY ACID ELONGASE, PUTATIVE): 1.14
fold change (protein LMJF.14.0705 FATTY ACID ELONGASE, PUTATIVE): 0.94
fold change (protein LMJF.14.0740 FATTY ACID ELONGASE, PUTATIVE): 1.13
fold change relative to vehicle control (protein LMJF.14.1120 KINESIN K39, PUTATIVE): 1.12
fold change vs vehicle control (protein LMJF.15.0230 LYSYL-TRNA SYNTHETASE, PUTATIVE): 1.06
fold change vs vehicle control (protein LMJF.15.0280 RIBONUCLEOPROTEIN P18, MIT[…], PUTATIVE): 1.12
fold change (protein LMJF.15.1010 GLUTAMATE DEHYDROGENASE): 1.12
fold change relative to vehicle control (protein LMJF.16.0520 HYPOTHETICAL PROTEIN, CONSERVED): 2.05
fold change (protein LMJF.16.0540 ASPARTATE […], PUTATIVE): 1.05
fold change vs vehicle control (protein LMJF.16.0950 SUCROSE-PHOSPHATE SYNTHASE-LIKE PROTEIN): 1.27
fold change vs vehicle control (protein LMJF.16.0960 HYPOTHETICAL PROTEIN, CONSERVED): 0.64
fold change (protein LMJF.16.1180 COATOMER DELTA SUBUNIT-LIKE PROTEIN): 1.05
fold change (protein LMJF.17.0010 HYPOTHETICAL PROTEIN, CONSERVED): 0.79
fold change vs vehicle control (protein LMJF.18.0510 ACONITASE, PUTATIVE): 1.1
fold change vs vehicle control (protein LMJF.18.0890 RAB7 GTP BINDING PROTEIN, PUTATIVE): 0.93
fold change (protein LMJF.18.1130 RAS-RELATED PROTEIN RAB-5, PUTATIVE): 0.97
fold change (protein LMJF.19.1120 […]-ATP-ASE SUBUNIT, PUTATIVE): 1.02
fold change vs vehicle control (protein LMJF.19.1160 HY[…], CONSERVED): 1.14
fold change vs vehicle control (protein LMJF.19.1530 PEPT[…]-LIKE PROTEIN): 1.05
fold change (protein LMJF.20.0100 PHOSPH[…] C, GLYCOSOMAL): 1.08
fold change vs vehicle control (protein LMJF.21.0720 HY[…], CONSERVED): 1.29
fold change (protein LMJF.21.1250 ADENYLATE KINASE, PUTATIVE): 0.9
fold change (protein LMJF.21.1555 HY[…], CONSERVED): 1.14
fold change (protein LMJF.21.1580 HY[…], UNKNOWN FUNCTION): 1.22
fold change vs vehicle control (protein LMJF.21.1700 […] 2 SUBUNIT, PUTATIVE): 1.01
fold change (protein LMJF.22.0230 AMINO ACID PERMEASE, PUTATIVE): 1.51
fold change (protein LMJF.22.0570 PROTEASOME REGULATORY ATPASE SUBUNIT 1, PUTATIVE): 1.1
